Measured values from patent publication US10582707B2, “Antimicrobial antibacterial and spore germination inhibiting activity from an avocado extract enriched in bioactive compounds” (priority 2010, dated 2020).
Converted amounts (≈) assume the structure as drawn.

Tests used:
[1] = test system: Clostridium sporogenes (ATCC 7955) heat shocked spores; test: microbe, parasite or virus in culture; format: cell-based; settings: ATCC7955, isolated compounds at 0.5 mg/ml, read-out: Disc Inhibition Zone, Heat Shocked Spores
Experimental: (§1) For the antibacterial evaluations, adjusted solutions (5 μL) were transferred to sterile 6-mm diameter discs made from Whatman no. 1 filter paper, so that after solvent evaporation each disc contained 12.5 μg of solids from the enriched avocado seed extract. Experimental controls were treated under the same conditions that the extracts and included negative control discs that contained 5 μL of acetone, and for positive control discs 5 μL of a nisin solution (30 mg/ml in sterile water) were added to provide a residual concentration of 150 μg of nisin in each disc. All test discs were left for about 1-2 hr in a Biological Safety Cabinet to evaporate the solvent. Suspensions of about 0.1 optical density (at 600 nm) containing approximately 1 to 2×10^8 CFU/ml of Clostridium sporogenes (ATCC 7955) vegetative cells, isolated native spores or isolated heat shocked spores were prepared as described in official protocols of Health Canada (Food Directorate, 2010). Aliquots of the suspensions (100 μL) were transferred to Petri dishes containing 15 ml of solid medium (TPGY medium) and spread evenly with a sterile plastic rod. Four discs, each containing 12.5 μg of the test extract, and two more discs (one solvent blank and one nisin positive control) were placed each dish and incubated at 37° C. under anaerobic conditions. The diameter of the inhibition zones (cm) around the discs were measured after 36 hrs.

[2] = test system: Clostridium sporogenes (ATCC 7955) vegetative cells; test: microbe, parasite or virus in culture; format: cell-based; settings: for zone of inhibition at 500 µg/mL: Clostridium sporogenes, ATCC7955, isolated compounds at 0.5 mg/ml, read-out: Disc Inhibition Zone, Vegetative Cells
Experimental: as §1

[3] = test system: heat shocked spores from C. sporogenes; test: MIC and MBC, heat shocked spores; format: cell-based; settings: Clostridium sporogenes, Example 11 method (Tables 6 and 10)
Experimental: In order to further characterize the antibacterial activities of the fractions with the highest activity, it was important to determine their minimum inhibitory concentration (MIC), defined as the lowest concentration of an antimicrobial that will inhibit the visible growth of a microorganism after overnight incubation. […] But in the case of heat-shocked spores, the differences between nisin and the fractions with Kd of 0.4 were less pronounced, but still presented the desired inhibitory properties against spore germination.
In general terms, MIC is defined as the lowest concentration of an antimicrobial that will inhibit the visible growth of a microorganism after overnight incubation. While the MBC is the lowest concentration of the antimicrobial that will prevent the growth of a microorganism after subculture to fresh agar media free from the antibiotic or antimicrobial agent. The pool of active the fractions was tested at concentrations ranging from 0.005 to 2.5 mg/ml and nisin was used as control.

S. aureus = test: Disc inhibition zone, S. aureus vegetative cells; format: cell-based; settings: isolated compounds at 0.5 mg/ml, Table 9; for zone of inhibition at 500 µg/mL: Staphylococcus aureus
Experimental: (§2) For the antibacterial evaluations, adjusted solutions (5 μL) were transferred to sterile 6-mm diameter discs made from Whatman no. 1 filter paper, so that after solvent evaporation each disc contained 12.5 μg of solids from the enriched avocado seed extract. […] All test discs were left for about 1-2 hr in a Biological Safety Cabinet to evaporate the solvent. Suspensions of about 0.1 optical density (at 600 nm) containing approximately 1 to 2×10^8 CFU/ml of Clostridium sporogenes (ATCC 7955) vegetative cells, isolated native spores or isolated heat shocked spores were prepared as described in official protocols of Health Canada (Food Directorate, 2010). Aliquots of the suspensions (100 μL) were transferred to Petri dishes containing 15 ml of solid medium (TPGY medium) and spread evenly with a sterile plastic rod. […] The diameter of the inhibition zones (cm) around the discs were measured after 36 hrs.
(§3) The fractions obtained from Normal phase FCPC, were then used to assess their antimicrobial activities against the growth of vegetative cells from S. aureus and B. subtilis.
(§4) In this example, the antimicrobial activities of the same isolated compounds described in Example 10 (Table 5) were tested against the growth of vegetative cells and heat shocked spores of C. sporogenes, and on vegetative cells of S. aureus, P. aeuroginosa, E. coli. and B. subtilis as previously described in Example 1, and at a concentration of 0.5 mg/ml.

B. subtilis = test: Disc inhibition zone, B. subtilis vegetative cells; format: cell-based; settings: Bacillus subtilis, isolated compounds at 0.5 mg/ml, Table 9, read-out: Disc inhibition zone, B. Subtillis
Experimental: as §2, §3, §4

P. aeuroginosa = test: Disc inhibition zone, P. aeuroginosa vegetative cells; format: cell-based; settings: isolated compounds at 0.5 mg/ml, Table 9
Experimental: as §1
(§5) In this example, the antimicrobial activities of the same isolated compounds described in Example 10 (Table 5) were tested against the growth of vegetative cells and heat shocked spores of C. sporogenes, and on vegetative cells of S. aureus, P. aeuroginosa, E. coli. and B. subtilis as previously described in Example 1, and at a concentration of 0.5 mg/ml. […] Since it has been reported that persin is able to inhibit fungi spore germination (Prusky et al., 1982), and in the present experiment it seems to have the lowest activity, it can be assumed that the other bioactive compound would have a higher activity against fungi spore.

E. coli = test: Disc inhibition zone, E. coli vegetative cells; format: cell-based; settings: isolated compounds at 0.5 mg/ml, Table 9; for zone of inhibition at 500 µg/mL: Escherichia coli
Experimental: as §1, §5

[4] = test system: vegetative cells of Listeria monocytogenes; test: Disc inhibition zone, Listeria monocytogenes at refrigeration and optimum temperature; format: cell-based; settings: 0.5 mg/ml
[5] = test system: Colletotrichum gloeosporioides; settings: cited from earlier work
[6] = test system: silkworm larvae Bombyx mori L.; settings: in vivo; cited from earlier work
Spodoptera exigua = settings: in vivo; cited from earlier work
[7] = test system: lactating mammary gland and myocardial fibers of mice; settings: cited from earlier work

| Structure (SMILES) | zone of inhibition at 500 µg/mL [1] [mm] | zone of inhibition at 500 µg/mL [2] [mm] | MIC [3] [µg/mL] | zone of inhibition at 500 µg/mL (S. aureus) [mm] | Disc inhibition zone, S. aureus (S. aureus) | zone of inhibition at 500 µg/mL (B. subtilis) [mm] | Disc inhibition zone, P. aeuroginosa (P. aeuroginosa) | zone of inhibition at 500 µg/mL (P. aeuroginosa) [mm] | zone of inhibition at 500 µg/mL (E. coli) [mm] | Disc inhibition zone, E. coli (E. coli) | zone of inhibition at 500 µg/mL ([4]; 37° C, 48 hours) [mm] | zone of inhibition at 500 µg/mL ([4]; 480 h, 4° C., 20 days) [mm] | bioactivity fold lower than that of persin [5] [fold] | antimicrobial activity reduced compared with persenone A ([2]; lack of C5-C6 double bond, 0.5 mg/ml) [%] | concentration inhibiting fungi spore germination completely [5] [µg/mL] | concentration in the artificial diet inhibiting larval feeding [6] [µg/g] | concentration of diet with inhibitory effects on feeding (Spodoptera exigua) [µg/g] | concentration of diet with inhibitory effects on larval growth (Spodoptera exigua) [µg/g] | dose rate inducing lactating mammary gland necrosis [7] [mg/kg] | doses at which necrosis of myocardial fibers may occur [7] |
| --- | --- | --- | --- | --- | --- | --- | --- | --- | --- | --- | --- | --- | --- | --- | --- | --- | --- | --- | --- | --- |
| CC/C=C/CCCCCCCCC/C=C/C(=O)C[C@@H](O)COC(C)=O (single isomer, unassigned) [Compound 6] | 17 | 19 | 15.6 (≈ 44.3 µM) | 0 | did not show inhibitory activity | 13 | did not show inhibitory activity | 0 | 0 | did not show inhibitory activity | 0 | 11 |  |  |  |  |  |  |  |  |
| CCCCC/C=C\C/C=C\CCCCC/C=C/C(=O)C[C@@H](O)COC(C)=O (single isomer, unassigned) [Compound 7] | 15 | 16 | 7.8 (≈ 20.6 µM) | 0 | did not show inhibitory activity | 7 | did not show inhibitory activity | 0 | 0 | did not show inhibitory activity | 0 | 11 |  |  |  |  |  |  |  |  |
| C=CCCCCCCCCCCC[C@H](O)C[C@H](O)COC(C)=O [Compound 3, (2S, 4S)-1-acetoxy-2,4-dihydroxy-n-heptadeca-16-ene] | 10 | 11 |  |  |  |  |  |  |  |  | 0 | 0 | 3 |  |  |  |  |  |  |  |
| C=C/C=C/CCCCCCCCCCCC(=O)C[C@@H](O)COC(C)=O [Compound 5, (2R, 16E)-1-acetoxy-2-hydroxy-4-oxo-nonadeca-16,18-diene] | 11 | 10 |  |  |  |  |  |  |  |  | 0 | 0 |  |  |  |  |  |  |  |  |
| CCCCCCCCCCCCC/C=C/C(=O)C[C@@H](O)COC(C)=O [Compound 9A, (5E)-1-acetoxy-2-hydroxy-5-nonadecen-4-one] | 17 | 19 | 7.8 (≈ 22 µM) | 0 | did not show inhibitory activity | 0 | did not show inhibitory activity | 0 | 0 | did not show inhibitory activity | 0 | 10 |  |  |  |  |  |  |  |  |
| CCCCC/C=C\C/C=C\CCCCCCCC(=O)C[C@@H](O)COC(C)=O [Compound 9B, (R, 12Z, 15Z)-1-acetoxy-2-hydroxy-4-oxo-heneicosa-12,15-diene] | 6 | 10 |  |  |  |  |  |  |  |  | 0 | 0 |  | 37.5 | 790 | ≥ 200 | 400 | 200 | 60 to 100 | above 100 mg/kg |
